Assay results taken from US20170150719A1, “FUNGICIDAL PYRAZOLES AND THEIR MIXTURES” (E I DU PONT DE NEMOURS AND COMPANY, priority 2010, published 2017).

Key:
[1] = system: Blumeria graminis f. sp. tritici; experiment: Test I: wheat powdery mildew, preventive spray on wheat seedlings, visual disease rating; conditions: 100 = 100% disease control; for pest or weed control at 200 µg/mL: Blumeria graminis, in Triticum aestivum, read-out: Test I rating (disease control), wheat powdery mildew; for pest or weed control at 200 µg/mL / Test I rating (disease control): 0 = no disease control relative to the controls; for Test I rating (% disease control) / Test I rating (disease control): wheat powdery mildew; for Test I rating (% disease control): preventive spray, rating without asterisk
Botrytis cinerea = experiment: Test A: tomato Botrytis, preventive spray on tomato seedlings, visual disease rating; conditions: 100 = 100% disease control; for pest or weed control at 200 µg/mL: Botrytis cinerea, in Solanum lycopersicum, read-out: Test A rating (disease control), tomato Botrytis; for pest or weed control at 200 µg/mL / Test A rating (disease control): 0 = no disease control relative to the controls; for Test A rating (% disease control) / Test A rating (disease control): tomato Botrytis; for Test A rating (% disease control): preventive spray, 0 = no control relative to controls, rating without asterisk
[2] = system: Puccinia recondita f. sp. tritici; experiment: Test G: wheat leaf rust, spray after inoculation (curative) on wheat seedlings, visual disease rating; type: in vivo; conditions: 100 = 100% disease control; for pest or weed control at 200 µg/mL / Test G rating (disease control): sprayed after inoculation, 0 = no disease control; for Test G rating (% disease control): spray after inoculation, rating without asterisk
Excerpt: (§1) A hyphen (-) indicates no test results.

Alternaria solani = experiment: Test B: tomato early blight, preventive spray on tomato seedlings, visual disease rating; conditions: for pest or weed control at 200 µg/mL: Alternaria solani, in Solanum lycopersicum, read-out: Test B rating (disease control); for Test B rating (% disease control) / Test B rating (disease control): tomato early blight, 100 = 100% disease control; for Test B rating (% disease control): preventive spray, rating without asterisk; for Test B rating (disease control): 0 = no disease control relative to the controls
Method: General protocol for preparing test suspensions for Tests A-I: the test compounds were first dissolved in acetone in an amount equal to 3% of the final volume and then suspended at the desired concentration (in ppm) in acetone and purified water (50/50 mix by volume) containing 250 ppm of the surfactant Trem® 014 (polyhydric alcohol esters). The resulting test suspensions were then used in Tests A-I. Each test was conducted in triplicate, and the results were averaged. Spraying a 200 ppm test suspension to the point of run-off on the test plants was the equivalent of a rate of about 800 g/ha. Unless otherwise indicated, the rating values indicate a 200 ppm test suspension was used. (An asterisk “*” next to the rating value indicates a 40 ppm test suspension was used.)
The test suspension was sprayed to the point of run-off on tomato seedlings. The following day the seedlings were inoculated with a spore suspension of Alternaria solani (the causal agent of tomato early blight) and incubated in a saturated atmosphere at 27° C. for 48 h, and then moved to a growth chamber at 20° C. for 5 days, after which time visual disease ratings were made.

Septoria nodorum = experiment: Test E: Septoria glume blotch, preventive spray on wheat seedlings, visual disease rating; conditions: 100 = 100% disease control; for pest or weed control at 200 µg/mL: Parastagonospora nodorum, in Triticum aestivum, read-out: Test E rating (disease control), Septoria glume blotch; for pest or weed control at 200 µg/mL / Test E rating (disease control): 0 = no disease control relative to the controls; for Test E rating (% disease control): Septoria glume blotch on wheat, preventive spray, rating without asterisk; for Test E rating (disease control): Septoria glume blotch
Phytophthora infestans = experiment: whole plant or invertebrate; type: in vivo; conditions: for pest or weed control at 200 µg/mL: Phytophthora infestans, in Solanum lycopersicum, read-out: Test C rating (disease control); for Test C rating (% disease control) / Test C rating (disease control): tomato late blight, 100 = 100% disease control; for Test C rating (% disease control): preventive spray, rating without asterisk; for Test C rating (disease control): 0 = no disease control relative to the controls
[3] = system: Puccinia recondita f. sp. tritici; experiment: Test H: wheat leaf rust, preventive spray on wheat seedlings, visual disease rating; conditions: 100 = 100% disease control; for pest or weed control at 200 µg/mL: read-out: Test H rating (disease control), wheat leaf rust, sprayed the day before inoculation; for pest or weed control at 200 µg/mL / Test H rating (disease control): 0 = no disease control; for Test H rating (% disease control) / Test H rating (disease control): wheat leaf rust; for Test H rating (% disease control): preventive spray, rating without asterisk; for Test H rating (disease control): sprayed the day before inoculation
Septoria tritici = experiment: Test F: wheat leaf blotch, preventive spray on wheat seedlings, visual disease rating; type: in vivo; conditions: 100 = 100% disease control; for pest or weed control at 200 µg/mL: Zymoseptoria tritici; for pest or weed control at 200 µg/mL / Test F rating (disease control): 0 = no disease control relative to the controls; for Test F rating (% disease control): preventive spray, rating without asterisk
Excerpt: as §1

| SMILES | pest or weed control at 200 µg/mL [1] [%] | pest or weed control at 200 µg/mL [2] [%] | pest or weed control at 200 µg/mL (Alternaria solani) [%] | pest or weed control at 200 µg/mL (Septoria nodorum) [%] | pest or weed control at 200 µg/mL (Phytophthora infestans) [%] | pest or weed control at 200 µg/mL [3] [%] | pest or weed control at 200 µg/mL (Septoria tritici) [%] | Test I rating (% disease control) [1] [%] | Test A rating (% disease control) (Botrytis cinerea) [%] | Test G rating (% disease control) [2] [%] | Test B rating (% disease control) (Alternaria solani) [%] | Test E rating (% disease control) (Septoria nodorum) [%] | Test C rating (% disease control) (Phytophthora infestans) [%] | Test H rating (% disease control) [3] [%] | Test F rating (% disease control) (Septoria tritici) [%] | Test I rating (disease control) [1] [%] | Test A rating (disease control) (Botrytis cinerea) [%] | Test G rating (disease control) [2] [%] | Test B rating (disease control) (Alternaria solani) [%] | Test E rating (disease control) (Septoria nodorum) [%] | other results |
| --- | --- | --- | --- | --- | --- | --- | --- | --- | --- | --- | --- | --- | --- | --- | --- | --- | --- | --- | --- | --- | --- |
| Cc1nn(C)c(Nc2c(F)cc(F)cc2Cl)c1-c1ccc(F)cc1Cl [Compound 82, N-(2-chloro-4,6-difluorophenyl)-4-(2-chloro-4-fluorophenyl)-1,3-dimethyl-1H-pyrazol-5-amine] | 100 | 97 | 100 | 100 | 0 | 100 | 100 |  |  |  |  |  |  |  |  |  |  |  |  |  | pest or weed control at 200 µg/mL (Botrytis cinerea): 99% |
| Cc1nn(C)c(Nc2c(Cl)cc(F)cc2Cl)c1-c1c(F)cccc1F [Compound 142, N-(2,6-dichloro-4-fluorophenyl)-4-(2,6-difluorophenyl)-1,3-dimethyl-1H-pyrazol-5-amine] | 100 | 0 | 96 | 92 | 0 | 100 | 100 |  |  |  |  |  |  |  |  |  |  |  |  |  | pest or weed control at 200 µg/mL (Botrytis cinerea): 100% |
| CCOc1cc(F)c(-c2c(C)nn(C)c2Nc2c(Cl)cc(F)cc2Cl)c(F)c1 [compound 200] |  |  |  |  |  |  |  | 79 | 98 | 0 | 97 | 0 | 31 | 86 | 100 |  |  |  |  |  |  |
| CCOc1ccc(-c2c(C)nn(C)c2Nc2c(Cl)cc(F)cc2Cl)c(F)c1 [compound 192] |  |  |  |  |  |  |  | 35 | 33 | 0 | 66 | 0 | 0 | 65 | 100 |  |  |  |  |  |  |
| Cc1nn(C)c(Nc2ccc(C#N)cc2F)c1-c1c(F)cccc1F [compound 59] |  |  |  |  |  |  |  |  |  |  |  |  |  |  |  | 98 | 99 | 9 | 94 | 73 | Test C rating (disease control) (Phytophthora infestans): 0%; Test H rating (disease control) [3]: 98%; Test F rating (disease control) (Septoria tritici): 100% |
| Cc1nn(C)c(Nc2c(F)cc(F)cc2Br)c1-c1ccc(F)cc1F [Compound 143, N-(2-bromo-4,6-difluorophenyl)-4-(2,4-difluorophenyl)-1,3-dimethyl-1H-pyrazol-5-amine] | 100 | 100 | 100 | 100 | 0 | 100 | 100 |  |  |  |  |  |  |  |  |  |  |  |  |  | pest or weed control at 200 µg/mL (Botrytis cinerea): 100% |
| COc1ccc(-c2c(C)nn(C)c2Nc2c(F)cc(Cl)cc2F)c(F)c1 [compound 185] |  |  |  |  |  |  |  | 100 | 100 | 0 | 99 | 60 | 0 | 99 | 100 |  |  |  |  |  |  |
| CCOc1cc(F)c(-c2c(C)nn(C)c2Nc2c(F)cc(F)cc2Cl)c(F)c1 [compound 196] |  |  |  |  |  |  |  | 100 | 100 | 0 | 100 | 95 | 0 | 94 | 100 |  |  |  |  |  |  |
| Cc1nn(C)c(Oc2c(F)cc(C#N)cc2F)c1-c1ccc(F)cc1F [compound 45] |  |  |  |  |  |  |  |  |  |  |  |  |  |  |  | 99 | 100 | 0 | 99 | 99 | Test C rating (disease control) (Phytophthora infestans): 0%; Test H rating (disease control) [3]: 100%; Test F rating (disease control) (Septoria tritici): 98% |
| Cc1nn(C)c(Nc2c(F)cc(Cl)cc2Br)c1-c1ccc(F)cc1Cl [compound 186] |  |  |  |  |  |  |  | 100 | 100 | 100 | 100 | 100 | 0 | 100 | 100 |  |  |  |  |  |  |
| Cc1nn(C)c(Nc2c(F)cc(Cl)cc2I)c1-c1ccc(F)cc1F [compound 180] |  |  |  |  |  |  |  | 100 | 100 | 98 | 100 | 99 | 9 | 100 | 100 |  |  |  |  |  |  |
| Cc1nn(C)c(Nc2c(Cl)cc(Cl)cc2Cl)c1-c1ccc(F)cc1F [compound 165] |  |  |  |  |  |  |  |  |  |  |  |  |  |  |  | 99 | 100 | 67 | 0 | 0 | Test C rating (disease control) (Phytophthora infestans): 0%; Test H rating (disease control) [3]: 99%; Test F rating (disease control) (Septoria tritici): 100% |
| Cc1nn(C)c(Nc2ccc(C#N)cc2F)c1-c1c(F)cc(F)cc1F [compound 34] |  |  |  |  |  |  |  |  |  |  |  |  |  |  |  | 99 | 100 | 0 | 99 | 94 | Test C rating (disease control) (Phytophthora infestans): 9%; Test H rating (disease control) [3]: 99%; Test F rating (disease control) (Septoria tritici): 100% |
| Cc1nn(C)c(Nc2c(Cl)cc(F)cc2Cl)c1-c1ccc(F)cc1Cl [Compound 138, 4-(2-chloro-4-fluorophenyl)-N-(2,6-dichloro-4-fluorophenyl)-1,3-dimethyl-1H-pyrazol-5-amine] | 99 | 17 | 66 | 0 | 0 | 100 | 100 |  |  |  |  |  |  |  |  |  |  |  |  |  | pest or weed control at 200 µg/mL (Botrytis cinerea): 100% |
| Cc1nn(C)c(Nc2c(F)cc(F)cc2Br)c1-c1c(F)cccc1F [Compound 146, N-(2-bromo-4,6-difluorophenyl)-4-(2,6-difluorophenyl)-1,3-dimethyl-1H-pyrazol-5-amine] | 100 | 74 | 100 | 100 | 0 | 98 | 100 |  |  |  |  |  |  |  |  |  |  |  |  |  |  |
| Cc1nn(C)c(Nc2c(F)cc(Cl)cc2F)c1-c1ccc(Cl)cc1Cl [compound 157] |  |  |  |  |  |  |  |  |  |  |  |  |  |  |  | 99 | 100 | 27 | 97 | 87 | Test C rating (disease control) (Phytophthora infestans): 0%; Test H rating (disease control) [3]: 100%; Test F rating (disease control) (Septoria tritici): 100% |
